Assay results: PubChem BioAssay AID1549 (Sanford-Burnham Center for Chemical Genomics, 2009)
Active and inactive are the calls of the source. How the calls were made is not given here.

Target: Influenza A virus M2 proton channel (A/TW/4845/1999 H1N1)
Assay: M2 proton channel binding, NMR based, influenza A virus H1N1 strain (AID 1549)
Details: NMR binding screen, M2 protein

| Structure (SMILES) | Kd |
| --- | --- |
| Cc1nc(N)sc1C(=O)Nc1nccs1 | > 4 mM (inactive) |
| CCn1cnc(C(=O)NC)c1C(=O)NC | > 4 mM (inactive) |
| O=C1c2ccccc2C(=O)c2c(O)c(O)cc(O)c21 | > 4 mM (inactive) |
| Cc1cc2cc(N)ccc2[nH]1 | > 4 mM (inactive) |
| CCNC(CC(=O)Nc1cccc([N+](=O)[O-])c1)C(=O)O (configuration not stated) | > 4 mM (inactive) |
| O=C1CCCN1C(=O)CN1CCOCC1 | > 4 mM (inactive) |
| COc1c2c(c(CC=C(C)C)c3oc(=O)c(-c4ccc(O)cc4)c(O)c13)OC(C)(C)C=C2 | > 4 mM (inactive) |
| Cc1nc2[nH]onc2c2nccc(=O)c12 | > 4 mM (inactive) |
| Cn1nc(C(=O)Nc2cccnc2)cc1Cl | > 4 mM (inactive) |
| NNc1ncnc2sccc12 | > 4 mM (inactive) |
| O=C(O)CNc1ncnc2nc[nH]c12 | > 4 mM (inactive) |
| Nc1ccc2c(c1)OCCO2 | > 4 mM (inactive) |
| Nc1ncnc(Cl)c1[N+](=O)[O-] | > 4 mM (inactive) |
| COc1ccc(/C=C2/N=C(N)SC2=O)cc1 | > 4 mM (inactive) |
| Cc1cccc(NC(=O)Nc2cc(C)on2)c1 | > 4 mM (inactive) |
| C=C1C2CC[C@@]3(C)[C@H](c4ccoc4)OC(=O)C[C@]13O[C@H]1CC(O)C(C)(C)C(CC(=O)OC)[C@@]21C (some centres not stated) | > 4 mM (inactive) |
| COc1cc(OC)c2ccc(=O)oc2c1 | > 4 mM (inactive) |
| CS(=O)(=O)Cc1ccccc1 | > 4 mM (inactive) |
| Cc1[nH]c2ccccc2c1C(=O)CSc1ncn[nH]1 | > 4 mM (inactive) |
| Cc1ccccc1-n1c(-c2ccncc2)n[nH]c1=S | > 4 mM (inactive) |
| COC(=O)C[C@H]1C(C)(C)C(=O)[C@@H]2CC3C4=CC(=O)O[C@@H](c5ccoc5)[C@]4(C)CCC3C1(C)C2=O (some centres not stated) | > 4 mM (inactive) |
| Nc1nc(-c2ccc(O)cc2)cs1 | > 4 mM (inactive) |
| CS(=O)(=O)c1ccc2nc(N)sc2c1 | > 4 mM (inactive) |

| Structure (SMILES) | Kd |
| --- | --- |
| Nc1nnc(SCc2ccccc2Cl)s1 | > 4 mM (inactive) |
| CCCCCCCCCCCC1=C(O)C(=O)C=C(O)C1=O | > 4 mM (inactive) |
| O=c1[nH]c2sc3c(c2c2nncn12)CCCC3 | > 4 mM (inactive) |
| COC(=O)C[C@@H]1C2(C)C(=O)[C@@H](CC3=C4CC(O)O[C@@H](c5ccoc5)[C@]4(C)CCC32)[C@H](O)C1(C)C (some centres not stated) | > 4 mM (inactive) |
| CC(=O)OC1CCC23CC1(C)CCC2C(C)(C)CC3OC(C)=O (configuration not stated) | > 4 mM (inactive) |
| Cc1nc(-c2ccc(CO)s2)cs1 | > 4 mM (inactive) |
| CNC(=S)N1CCN=C1Nc1nc(C)cc(C)n1 | > 4 mM (inactive) |
| OC[C@H]1O[C@@H](Oc2ccc(O)cc2)[C@H](O)[C@@H](O)[C@@H]1O | > 4 mM (inactive) |
| O=C(Nc1nnc(-c2ccco2)o1)C1=COCCO1 | > 4 mM (inactive) |
| CN1C(=O)C(Cc2c[nH]c3ccccc23)C(=O)N(C)C1=O | > 4 mM (inactive) |
| COc1cccc(N2CCNCC2)c1 | > 4 mM (inactive) |
| CC1(C)NC(=O)N(CCOc2ccc3c(c2)CCC3)C1=O | > 4 mM (inactive) |
| Cc1cc(NC(=O)c2ccc3c(c2)OCO3)no1 | > 4 mM (inactive) |
| COc1cc2c(cc1OC)-c1nnnn1C(C)(C)C2 | > 4 mM (inactive) |
| CC(C)=NNC(=O)C(=O)Nc1ccc(F)cc1 | > 4 mM (inactive) |
| CC(=O)NC12CC3CC(CC(O)(C3)C1)C2 | > 4 mM (inactive) |
| CN(C)S(=O)(=O)N1CCc2ccccc21 | > 4 mM (inactive) |
| COC(=O)c1c(C)cc(OC(=O)c2c(C)cc(O)c(C=O)c2O)c(C)c1O | > 4 mM (inactive) |
| Cc1nn2c(-c3ccco3)nnc2c2ccccc12 | > 4 mM (inactive) |
| CCN1C[C@@]2(COC)C3[C@@H](OC)[C@H]4[C@@H]1[C@]3(C(OC)C[C@H]2O)C1C[C@@]2(O)[C@H](OC(=O)c3ccccc3)C1[C@]4(OC(C)=O)[C@@H](O)[C@@H]2OC (some centres not stated) | > 4 mM (inactive) |
| COc1cc(OC)c2c(=O)c(-c3ccccc3)coc2c1 | > 4 mM (inactive) |
| Cc1oc(-c2ccccc2)nc1CC(=O)O | > 4 mM (inactive) |
| COc1ccc(-c2cc3nc4n(c(=O)c3s2)CCC4)cc1 | > 4 mM (inactive) |

| Structure (SMILES) | Kd |
| --- | --- |
| COc1c2c(cc3occ(-c4ccc5c(c4)OCO5)c(=O)c13)OC(C)(C)C=C2 | > 4 mM (inactive) |
| CC(C)NC(=O)Cc1c(O)c2ccccc2[nH]c1=O | > 4 mM (inactive) |
| Cc1c(CCO)c(=O)n2c([nH]c3ccccc32)c1C#N | > 4 mM (inactive) |
| CC1(C)Cc2nc(N3CCOCC3)c(C#N)cc2CO1 | > 4 mM (inactive) |
| O=C1CN(C(=O)c2ccccc2)c2ccccc2N1 | > 4 mM (inactive) |
| COc1cc2c(cc1-c1cc3cc4ccoc4cc3oc1=O)OCO2 | > 4 mM (inactive) |
| Cc1cc(C(=O)Nc2nnc(C(F)(F)F)s2)no1 | > 4 mM (inactive) |
| C(=N\n1cnnc1)/c1cccs1 | > 4 mM (inactive) |
| CCC(=O)Nc1ccc(-c2nn3c(C)nnc3s2)cc1 | > 4 mM (inactive) |
| Cc1cc(C(=O)Nc2cccnc2)cs1 | > 4 mM (inactive) |
| NC(=O)CC1Sc2ccccc2NC1=O (configuration not stated) | > 4 mM (inactive) |
| Cn1c(SCC(N)=O)nnc1-c1c[nH]c2ccccc12 | > 4 mM (inactive) |
| CNC(=O)c1c(O)c2ccccc2[nH]c1=O | > 4 mM (inactive) |
| COc1ccc(N2C(=O)CCC2=O)c(OC)c1 | > 4 mM (inactive) |
| COc1cccc(NC(=O)c2nc3ncccn3n2)c1 | > 4 mM (inactive) |
| O=C(Nc1ccccc1)c1cccc(N2C(=O)CCC2=O)c1 | > 4 mM (inactive) |
| CN(C)C(=O)Oc1cccc(-c2nnco2)c1 | > 4 mM (inactive) |
| Cc1nc(-c2cc(C(=O)O)no2)cs1 | > 4 mM (inactive) |
| COc1cc(C(C)=O)ccc1OC(=O)N1CCOCC1 | > 4 mM (inactive) |
| O=C(O)CCNc1n[nH]c(=O)[nH]c1=O | > 4 mM (inactive) |
| COc1ccccc1NC(=O)NC(N)=O | > 4 mM (inactive) |
| CCOC(=O)c1[nH]cnc1C(=O)OC(C)C | > 4 mM (inactive) |
| CCc1sc(C(=O)NC)cc1Br | > 4 mM (inactive) |

| Structure (SMILES) | Kd |
| --- | --- |
| O=C(NCc1cccs1)c1nc2ncccn2n1 | > 4 mM (inactive) |
| CC(=O)O[C@@H]1CC2C(C)(C)C=CC(=O)[C@]2(C)C2CC[C@@]3(C)[C@H](c4ccoc4)OC(=O)C4OC43[C@@]21C (some centres not stated) | > 4 mM (inactive) |
| Cc1ncoc1C(=O)Nc1ccccc1C(N)=O | > 4 mM (inactive) |
| CC(O)c1ccc(C(C)O)cc1 (configuration not stated) | > 4 mM (inactive) |
| CC(=O)Nc1cccc(NC(=O)c2ccco2)c1 | > 4 mM (inactive) |
| COc1ccc(C(=O)NNC(=S)NC(C)=O)cc1 | > 4 mM (inactive) |
| CCCn1cnn2c(=O)cc(C)nc12 | > 4 mM (inactive) |
| CCc1ccccc1NC(=O)c1cnccn1 | > 4 mM (inactive) |
| c1cc(C(N2CCOCC2)N2CCOCC2)ccn1 | > 4 mM (inactive) |
| O=C(O)c1ccc2nccnc2c1 | > 4 mM (inactive) |
| CSc1ccc(/C=c2\sc3ncnn3c2=O)cc1 | > 4 mM (inactive) |
| CC(=O)Nc1cc(C(N)=O)cc(C(N)=O)c1 | > 4 mM (inactive) |
| COc1cc2c(cc1OC)C(C)NCC2 (configuration not stated) | > 4 mM (inactive) |
| Cn1c(=O)n(C)c2nc([N+](=O)[O-])c(Cl)cc21 | > 4 mM (inactive) |
| COc1ccccc1N1C(=N)SCC1=O | > 4 mM (inactive) |
| Cc1cc(=O)[nH]c(N2CCN(Cc3ccccc3)CC2)n1 | > 4 mM (inactive) |
| c1ccc(SCc2nc(-c3cccnc3)no2)cc1 | > 4 mM (inactive) |
| COc1ccccc1C(=O)NC1CCN(C)CC1 | > 4 mM (inactive) |
| CCCCCCCCCCCCCc1ccco1 | > 4 mM (inactive) |
| O=C(O)CN1CCN(C2CCCC2)CC1 | > 4 mM (inactive) |
| S=c1nc(Cc2ccccc2)[nH][nH]1 | > 4 mM (inactive) |
| Nc1ncnc(NCCCO)c1[N+](=O)[O-] | > 4 mM (inactive) |
| Nc1ncnc2c1ncn2CCN1CCOCC1 | > 4 mM (inactive) |

| Structure (SMILES) | Kd |
| --- | --- |
| CC(C)[C@@H]1CC[C@@H](C)C[C@H]1O | > 4 mM (inactive) |
| O=C1CCCc2c(O)cccc21 | > 4 mM (inactive) |
| COC(=O)C[C@@H]1C2(C)C(=O)[C@@H](CC3=C4CC(=O)O[C@@H](c5ccoc5)[C@]4(C)CCC32)[C@H](OC(C)=O)C1(C)C (some centres not stated) | > 4 mM (inactive) |
| Cc1cc(=O)[nH]c(NCC(=O)O)n1 | > 4 mM (inactive) |
| Nc1cccc2cccnc12 | > 4 mM (inactive) |
| COc1ccc(-c2cc(=O)c3c(O)cc(O[C@H]4O[C@H](CO[C@@H]5O[C@@H](C)[C@H](O)[C@@H](O)[C@H]5O)[C@@H](O)[C@H](O)[C@H]4O)cc3o2)cc1 | > 4 mM (inactive) |
| C/C=C/COc1nc2c(c(=O)n(C)c(=O)n2C)n1C | > 4 mM (inactive) |
| O=C1C=CC2=C3c4cc(O)c(O)cc4CC3(O)COC2=C1O (configuration not stated) | > 4 mM (inactive) |
| O=c1c(O)c(-c2ccccc2)oc2ccc3occc3c12 | > 4 mM (inactive) |
| CC1(C)C(=O)C=C[C@@]2(C)C1=C(O)C(=O)[C@]1(C)C2CC[C@@]2(C)[C@H](c3ccoc3)C[C@H]3O[C@]321 (some centres not stated) | > 4 mM (inactive) |
| OC1(c2ccc(Cl)cc2)CCNCC1 | > 4 mM (inactive) |
| CCN1CCC2(CC1)CC1CC3C=CC1(CN2C(C)=O)O3 (configuration not stated) | > 4 mM (inactive) |
| CCOC(=O)C1CCN(c2ccc(C#N)cc2)CC1 | > 4 mM (inactive) |
| C[C@@H]1OC(O[C@H]2C(O[C@H]3CC[C@@]4(C)C(CC[C@]5(C)C4CC=C4C6CC(C)(C)CC[C@]6(C(=O)O)CC[C@]45C)[C@]3(C)CO)OC[C@H](O)[C@@H]2O)[C@H](O)[C@H](O)[C@H]1O (some centres not stated) | > 4 mM (inactive) |
| OC(CCl)c1ccc(-n2cncn2)cc1 (configuration not stated) | > 4 mM (inactive) |
| O=c1[nH]cc(NCc2ccco2)c(=O)[nH]1 | > 4 mM (inactive) |
| Cc1ccc(CN2CCN(C(=O)C3CCC3)CC2)cc1 | > 4 mM (inactive) |
| Cc1cc(C(=O)NCc2ccccc2Br)no1 | > 4 mM (inactive) |
| NC(=O)N1CCc2ccccc21 | > 4 mM (inactive) |
| CC(C1OC(C)(C)C(O)C1O)[C@@H]1CC[C@]2(C)C3=CCC4C(C)(C)C(=O)CC[C@]4(C)C3CC[C@@]12C (some centres not stated) | > 4 mM (inactive) |
